“Also recorded” adds a separate entry of the source. Read-outs that look alike come from different tables or passages of the source.
Legend:
MinD [1] = experiment: Self-organization assay: ssDNA competition with preformed dsDNA-peptide conjugate; format: biochemical, Escherichia coli; details: 160 nM common 10 nt and 10 nt peptide conjugates preincubated with 1 μM MinD, competitor added in increasing amounts
Procedure: Supported lipid bilayers (SLBs) were formed by fusion of SUVs in a 96-well plate with a glass bottom (Greiner Bio-One, Kremsmünster, Austria). Plates were cleaned for 30 s (30% power, 0.3 mbar) in a Zepto plasma cleaner (Diener electronic GmbH, Ebhausen, Germany) using oxygen as the process gas. Lipids were prepared as described above, except that sonication was used instead of freeze–thaw cycles to form SUVs. SUVs were added to each reaction chamber at a final concentration of 0.6 mg/mL and incubated for 2 min on a 37 °C warm heating block.
All self-organization assays were performed as previously described.[12],[30] […] For fluorescence imaging, MinD was doped with 30% ATTO655-KCK-MinD.
Imaging was performed on either a commercial Zeiss LSM800 or LSM780 confocal microscope each equipped with a Zeiss C-Apochromat 40X/1.20 water-immersion objective (Carl Zeiss AG, Oberkochen, Germany). ATTO655-KCK-MinD was excited at 640 nm and imaging was performed with a pinhole diameter of 1 Airy unit.
Image analysis was performed in Fiji with the Radial Profile plugin (https://imagej.nih.gov/ij/plugins/radial-profile.html) using custom macro scripts.[31],[32] To discriminate among different patterns and to further characterize them, two approaches were applied. In the first, autocorrelation analysis was performed for each image. A soft windowing function (raised-cosine window, 1 at the center and 0.75 at the edges) was applied to reduce edge effects. Then the autocorrelation image was computed, from which a radial amplitude profile was generated. The position of the first peak in the profile was identified as the correlation distance. Patterns were further analyzed by computing the percentage variation of the correlation intensity along the ring in the autocorrelation image, here defined as correlation dispersion. […] Once separated, the pattern types were further characterized on the basis of additional parameters. Specifically, for the quasi-stationary patterns we used the spot density, derived from the reciprocal of the squared correlation distance, or the correlation distance itself. […]

MinD ATPase [2] = biological target: T1, MinD ATPase (Escherichia coli, UniProt P0AEZ3); details: read-out: IC50 of MinD ATPase activity; unconjugated ssDNA competitor added to MinD with common 10 nt + complementary 10 nt peptide conjugates; two independent assays, each three technical replicates; 95% CI (nM): 12-mer 60.3 to 81.9, 10-mer 393.6 to 772.0, 7-mer 1557.0 to 2730.0
T1 sequence (P0AEZ3 1-270): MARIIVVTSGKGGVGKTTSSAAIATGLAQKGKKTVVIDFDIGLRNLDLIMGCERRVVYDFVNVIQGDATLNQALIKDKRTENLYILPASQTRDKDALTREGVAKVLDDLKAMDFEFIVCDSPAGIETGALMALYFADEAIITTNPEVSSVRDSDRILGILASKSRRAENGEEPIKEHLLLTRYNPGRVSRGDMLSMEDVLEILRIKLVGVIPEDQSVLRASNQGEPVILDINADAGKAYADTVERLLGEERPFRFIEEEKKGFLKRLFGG

MinD ATPase [3] = biological target: T1, MinD ATPase; details: 1 μM MinD, controls: four technical replicates, unconjugated peptide or single unhybridized conjugate
MinD ATPase [4] = biological target: T1, MinD ATPase; experiment: MinD ATPase assay: free biotin competing with MinE(13-31)-biotin for divalent streptavidin; format: biochemical; design: His (N); made in house; host or cells: E. coli BL21 (DE3)
MinD [5] = details: 1 μM MinD, 500 nM MinE(13-31)-biotin, 90 nM divalent streptavidin

10-mer: competitor ssDNA 5`-AGATGTATTT-3`, 8 overlaps (DNA, backbone not given here)
alteration/abolition of MinD patterns by ssDNA competitor (MinD [1]): abolition of MinD self-organization, but only at higher concentrations in comparison to the 12-mer; also recorded: altered wavelengths of the protein patterns, before eventually abolishing them completely
alteration/abolition of MinD patterns by ssDNA competitor (MinD [1]; listed as 10mer): alteration, and ultimately abolition, of protein patterns
IC50 (MinD ATPase [2]): 551 nM

12-mer: competitor ssDNA 5`-CTAGATGTATAA-3`, 12 overlaps (DNA, backbone not given here)
alteration/abolition of MinD patterns by ssDNA competitor (MinD [1]): alteration, and ultimately abolition, of protein patterns; also recorded: clear transformation from propagating surface waves, through quasi-stationary patterns (reverse hexagons), to the complete abolition of protein patterns
IC50 (MinD ATPase [2]): 70.3 nM

N-term-NTANIAKERLQIIVAERRRGSGK(N3)-C-term [MinE(13-31)]
MinD ATPase stimulation (in words) (MinD ATPase [3]): only able to slightly stimulate MinD’s ATPase activity
MinD ATPase stimulation (in words) (MinD ATPase [3]; listed as unconjugated peptide): slightly elevated

O=C(O)CCCC[C@@H]1SC[C@@H]2NC(=O)N[C@@H]21 [free biotin, biotin]
IC50 (MinD ATPase [4]): 0.0087 µM
free biotin concentration for complete abolition of patterns (MinD [5]): approximately 50 nM
